Laboratory results: ChEMBL document CHEMBL1145461 (J Med Chem, 2007)

Legend:
[1] = target: T1, Aromatase (Homo sapiens, UniProt P11511); assay: Inhibition of CYP19 in human placental microsomes; design: species or system Placenta
T1 sequence (P11511 whole entry): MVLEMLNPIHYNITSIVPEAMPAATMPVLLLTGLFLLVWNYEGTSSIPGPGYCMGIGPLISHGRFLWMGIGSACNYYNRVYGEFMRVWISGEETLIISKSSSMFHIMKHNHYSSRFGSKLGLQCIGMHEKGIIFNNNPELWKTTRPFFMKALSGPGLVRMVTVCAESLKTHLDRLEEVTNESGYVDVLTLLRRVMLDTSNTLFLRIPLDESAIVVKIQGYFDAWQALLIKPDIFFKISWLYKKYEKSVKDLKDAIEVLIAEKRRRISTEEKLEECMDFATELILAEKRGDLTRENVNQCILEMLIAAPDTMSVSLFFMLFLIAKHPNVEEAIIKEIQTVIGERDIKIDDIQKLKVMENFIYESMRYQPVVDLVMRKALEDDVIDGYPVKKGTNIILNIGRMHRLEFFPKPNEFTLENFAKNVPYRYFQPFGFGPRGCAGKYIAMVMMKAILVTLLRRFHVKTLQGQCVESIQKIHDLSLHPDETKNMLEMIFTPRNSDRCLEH

[2] = target: T2, CYP17 (steroid 17-alpha-hydroxylase/17,20 lyase) (Homo sapiens, UniProt P05093); assay: (§1) Inhibition of human CYP17 expressed in Escherichia coli at 2.5 uM; conditions: recombinant human CYP17 expressed in Escherichia coli
T2 sequence (P05093 whole entry): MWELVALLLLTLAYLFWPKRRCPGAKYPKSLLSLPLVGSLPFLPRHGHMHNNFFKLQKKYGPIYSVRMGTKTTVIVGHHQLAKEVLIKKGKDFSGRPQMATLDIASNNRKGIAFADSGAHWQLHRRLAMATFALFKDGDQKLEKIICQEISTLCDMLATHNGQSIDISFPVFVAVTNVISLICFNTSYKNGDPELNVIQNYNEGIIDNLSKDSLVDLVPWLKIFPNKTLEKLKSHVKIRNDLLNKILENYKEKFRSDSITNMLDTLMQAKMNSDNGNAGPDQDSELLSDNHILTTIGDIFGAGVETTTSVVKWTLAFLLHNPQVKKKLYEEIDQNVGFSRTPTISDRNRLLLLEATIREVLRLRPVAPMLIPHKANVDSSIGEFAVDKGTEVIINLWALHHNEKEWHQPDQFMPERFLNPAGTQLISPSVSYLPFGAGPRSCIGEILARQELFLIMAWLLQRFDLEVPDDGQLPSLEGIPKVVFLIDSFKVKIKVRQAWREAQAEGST

[3] = target: T3, Steroid 17-alpha-hydroxylase/17,20 lyase (Homo sapiens, UniProt P05093); assay: as §1; conditions: 2.5 µM
T3 sequence (P05093 whole entry): T2 sequence (P05093 whole entry)

Row | IC50 [1] | inhibition at 2.5 µM [2] | Inhibition [3] | Compound
1 | 0.0177 µM | 17% | – | O=C(c1ccc(-c2ccccc2)cc1)c1cc([N+](=O)[O-])ccc1Cn1ccnc1
2 | – | – | Not Active | O=C(c1ccccc1)c1ccc(Cn2ccnc2)cc1
3 | 0.56 µM | – | Not Active | O=C(c1ccccc1)c1ccccc1Cn1ccnc1
4 | 0.26 µM | 24% | – | O=C(c1ccc(-c2ccccc2)cc1)c1ccccc1Cn1ccnc1
5 | 0.0053 µM | – | Not Active | O=C(c1ccc(-c2ccccc2)cc1)c1cccc(Cn2ccnc2)c1
6 | 0.4 µM | 15% | – | O=C(c1ccccc1)c1cc(Br)ccc1Cn1ccnc1
7 | – | – | Not Active | N#Cc1ccc(C2CCCc3cncn32)cc1 (stereo not drawn) [FADROZOLE]
8 | 0.031 µM | – | Not Active | O=C(c1ccccc1)c1cc(Cn2ccnc2)ccc1[N+](=O)[O-]
9 | 0.0073 µM | – | Not Active | O=C(c1ccccc1)c1cccc(Cn2ccnc2)c1
10 | 0.0259 µM | – | Not Active | O=C(c1ccccc1)c1cc([N+](=O)[O-])ccc1Cn1ccnc1
